Test [1] has as its system MOLM14 cells. As to the kind of experiment: Proliferation assay, spheroid-like growth, MOLM14 (MLL-AF9 rearranged). Format: cell-based, human. Particulars: Homo sapiens, MOLM-14, 192 h, 8 days, confluence as measure of spheroid size, read-out: spheroid assay_OneTime MOLM14 IC50. A digest of the protocol: (§1)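 MOLM14 (MLL-AF9) or KO-52 (MLL wildtype) cells were grown in ultra-low attachment round-bottom wells with compound (0.3% DMSO) for 8 days at 37 °C. Spheroid confluence was imaged live on day 8, normalized to DMSO and a high-dose reference/staurosporin control, and absolute IC50 fitted with variable slope.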

Test [2] deals with KO-52 cells. As to the kind of experiment: Proliferation assay, spheroid-like growth, KO-52 (MLL wildtype control cell line). In kind it is cell-based, human. The following applies: Homo sapiens, 192 h, KO-52 control cells, 8 days, confluence as measure of spheroid size; read-out: spheroid assay_OneTime KO-52 IC50. A digest of the protocol:
as §1

Test [3] concerns the target T1, menin/MLL (terbium chelate-labeled menin, FITC-MBM1 peptide) (Homo sapiens, UniProt O00255, T541A).
T1 construct: Menin (a.a 1-610-6xhis tag)
T1 sequence (O00255 with tags, fused parts or gaps T541A): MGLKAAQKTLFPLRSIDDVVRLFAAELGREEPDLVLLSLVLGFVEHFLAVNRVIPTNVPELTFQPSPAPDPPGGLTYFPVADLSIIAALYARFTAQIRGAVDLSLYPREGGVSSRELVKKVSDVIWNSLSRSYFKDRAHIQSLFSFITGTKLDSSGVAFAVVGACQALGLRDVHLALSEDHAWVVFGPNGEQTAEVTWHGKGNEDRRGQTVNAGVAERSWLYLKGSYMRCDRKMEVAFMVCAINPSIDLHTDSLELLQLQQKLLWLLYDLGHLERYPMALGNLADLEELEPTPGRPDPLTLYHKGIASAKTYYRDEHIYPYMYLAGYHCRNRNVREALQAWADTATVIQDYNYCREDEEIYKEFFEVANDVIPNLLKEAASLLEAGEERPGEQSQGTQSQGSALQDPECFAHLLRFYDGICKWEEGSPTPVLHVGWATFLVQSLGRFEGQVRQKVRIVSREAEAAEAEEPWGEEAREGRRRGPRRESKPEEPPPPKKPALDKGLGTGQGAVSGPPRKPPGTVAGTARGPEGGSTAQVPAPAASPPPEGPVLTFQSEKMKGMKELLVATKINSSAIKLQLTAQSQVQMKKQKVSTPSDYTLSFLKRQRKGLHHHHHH
As to the kind of experiment: Menin/MLL homogenous time-resolved fluorescence (HTRF) assay. Format: binding. Particulars: 30 min incubation. A digest of the protocol:
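Read-out: TR-FRET ratio (FITC 520 nm / terbium 490 nm, ex. 337 nm) after 15 min with 75 nM FITC-MBM1 peptide. Test compound first sat 30 min with 200 pM Tb-menin 1-610-His, 0.5% DMSO, pH 7.5 Tris buffer. IC50 by Hill fit; values under 0.1 nM reported as 0.1 nM.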
In general terms: Time-resolved FRET reads energy transfer from a long-lived donor to a nearby acceptor.

Where only a bound is given, the exact number is not on record here.

As a reminder, the IC50 is the midpoint of a concentration-inhibition curve.

On to `CC(C)[C@@H]([C@H]1C[C@@H](N2C[C@H]3COC[C@H]3C2)C1)N1CC2(CCN(c3ncnnc3Oc3ccc(F)cc3-c3nnccc3C3CC3)C2)C1` (single isomer, unassigned) [Compound 258], for which the values for the IC50 in test [1], in test [2] and in test [3] were 0.004 µM, 0.49 µM and 0.0001 µM, respectively.

As for `CC(C)[C@@H]([C@H]1C[C@H](N2C[C@H]3COC[C@H]3C2)C1)N1CC2(CCN(c3ncnnc3Oc3ccc(F)cc3-c3nnccc3C3CC3)C2)C1` (single isomer, unassigned) [Compound 259], the IC50 in test [1] was found to be 0.094 µM; in test [2] it was 4.76 µM; in test [3] it was 0.0004 µM.

`COC1CN([C@H]2C[C@@H]([C@H](C(C)C)N3CC4(CCN(c5ncnnc5Oc5ccc(F)cc5-c5nnccc5C5CC5)C4)C3)C2)C1` (single isomer, unassigned) [Compound 260]: the IC50 in test [1] came to 0.006 µM; in test [2] it was 3.25 µM; in test [3] it was 0.0001 µM.

Turning to `CC(C)[C@@H]([C@H]1C[C@@H](N(C)C)C1)N1CC2(CCN(c3ncnnc3Oc3ccc(F)cc3-c3nnccc3C3CC3)C2)C1` (single isomer, unassigned) [Compound 261a], the concentration for half-maximal inhibition (IC50) is 0.019 µM in test [1], greater than 15 µM in test [2] and 0.00016 µM in test [3].

For `CC(C)[C@@H]([C@H]1C[C@H](N(C)C)C1)N1CC2(CCN(c3ncnnc3Oc3ccc(F)cc3-c3nnccc3C3CC3)C2)C1` (single isomer, unassigned) [Compound 261b], the IC50 came out at 0.083 µM in test [1], 3.07 µM in test [2] and 0.0003 µM in test [3].

`CC(C)[C@@H]([C@H]1C[C@@H](N2CC[C@@H](F)C2)C1)N1CC2(CCN(c3ncnnc3Oc3ccc(F)cc3-c3nnccc3C3CC3)C2)C1` (single isomer, unassigned) [Compound 262]: the figures for the IC50 in test [1], in test [2] and in test [3] were 0.005 µM, 1.28 µM and 0.0001 µM, respectively.

As for `COC1(C)CN([C@H]2C[C@H]([C@H](C(C)C)N3CC4(CCN(c5ncnnc5Oc5ccc(F)cc5-c5nnccc5C5CC5)C4)C3)C2)C1` (single isomer, unassigned) [Compound 264], the IC50 was found to be 0.17 µM in test [1], 14.4 µM in test [2] and 0.0008 µM in test [3].

`CC(C)[C@H]([C@H]1C[C@@H](N2CCC3(CCCO3)C2)C1)N1CC2(CCN(c3ncnnc3Oc3ccc(F)cc3-c3nnccc3C3CC3)C2)C1` (single isomer, unassigned) [Compound 271]: the IC50 in test [1] is 0.26 µM; in test [2], greater than 15 µM; in test [3] it was 0.0024 µM.

Regarding `CC(C)[C@@H]([C@H]1C[C@H](NC2CC2)C1)N1CC2(CCN(c3ncnnc3Oc3ccc(F)cc3-c3nnccc3C3CC3)C2)C1` (single isomer, unassigned) [Compound 273], the IC50 in test [1] is 0.11 µM; in test [2], greater than 15 µM; in test [3], 0.0003 µM.

Turning to `CC(C)[C@@H]([C@H]1C[C@@H](N2CC(OC3CC3)C2)C1)N1CC2(CCN(c3ncnnc3Oc3ccc(F)cc3-c3nnccc3C3CC3)C2)C1` (single isomer, unassigned) [Compound 274], the IC50 came out at 0.002 µM in test [1], 3.56 µM in test [2] and 0.0001 µM in test [3].

With `CC(C)[C@@H]([C@H]1C[C@H](N2C[C@H]3COC[C@H]3C2)C1)N1CC2(CCN(c3ncnnc3Oc3ccc(F)cc3-c3cnncc3C3CC3)C2)C1` (single isomer, unassigned) [Compound 279], the figures for the concentration for half-maximal inhibition (IC50) in test [1], in test [2] and in test [3] were 0.02 µM, 5.99 µM and 0.0001 µM, respectively.

Take `CC(C)[C@H]([C@H]1C[C@H](N2CCC3(CCO3)CC2)C1)N1CC2(CCN(c3ncnnc3Oc3ccc(F)cc3-c3cnncc3C3CC3)C2)C1` (single isomer, unassigned) [Compound 280b]: the IC50 in test [1] is 0.74 µM; in test [2], greater than 15 µM; in test [3], 0.0024 µM.

As to `CO[C@H]1[C@@H]2CN([C@H]3C[C@H]([C@H](C(C)C)N4CC5(CCN(c6ncnnc6Oc6ccc(F)cc6-c6cnncc6C6CC6)C5)C4)C3)C[C@@H]21` (single isomer, unassigned) [Compound 282b], the IC50 in test [1] was found to be 0.38 µM; in test [2], 11.5 µM; in test [3], 0.0005 µM.

As for `CC(C)[C@@H]([C@H]1C[C@@H](N2CC[C@H](S(C)(=O)=O)C2)C1)N1CC2(CCN(c3ncnnc3Oc3ccc(F)cc3-c3ncccc3C3CC3)C2)C1` (single isomer, unassigned) [Compound 285], the IC50 in test [1] was greater than 0.94 µM; in test [2], greater than 15 µM; in test [3], 0.0233 µM.

In the case of `CC(C)[C@H]([C@H]1C[C@@H](N2CC[C@H](S(C)(=O)=O)C2)C1)N1CC2(CCN(c3ncnnc3Oc3ccc(F)cc3-c3ncccc3C3CC3)C2)C1` (single isomer, unassigned) [Compound 286], the IC50 was 0.12 µM in test [1], 12.2 µM in test [2] and 0.0003 µM in test [3].

In the case of `CC(C)[C@@H]([C@H]1C[C@@H](N2CC[C@@H](S(C)(=O)=O)C2)C1)N1CC2(CCN(c3ncnnc3Oc3ccc(F)cc3-c3ncccc3C3CC3)C2)C1` (single isomer, unassigned) [Compound 287], the IC50 was greater than 0.94 µM in test [1], greater than 15 µM in test [2] and 0.0703 µM in test [3].

Turning to `CC(C)[C@H]([C@H]1C[C@@H](N2C[C@H]3C[C@@H]2CO3)C1)N1CC2(CCN(c3ncnnc3Oc3ccc(F)cc3-c3ncccc3C3CC3)C2)C1` (single isomer, unassigned) [Compound 288], the IC50 in test [1] is 0.017 µM; in test [2] it was 12.1 µM; in test [3], 0.0001 µM.

As for `CC(C)[C@@H]([C@H]1C[C@@H](N2CCC3(COC3)C2)C1)N1CC2(CCN(c3ncnnc3Oc3ccc(F)cc3-c3cccnc3C3CC3)C2)C1` (single isomer, unassigned) [Compound 289], the IC50 in test [1] is 0.002 µM; in test [2], 0.31 µM; in test [3] it was 0.0001 µM.

For the compound `CC(C)[C@@H]([C@H]1C[C@@H](N2C[C@H]3C[C@@H]2CO3)C1)N1CC2(CCN(c3ncnnc3Oc3ccc(F)cc3-c3cccnc3C3CC3)C2)C1` (single isomer, unassigned) [Compound 290], the figures for the IC50 in test [1], in test [2] and in test [3] were 0.005 µM, 1.08 µM and 0.0001 µM, respectively.

Take `CC(C)[C@@H]([C@H]1C[C@H](N2C[C@H]3C[C@@H]2CO3)C1)N1CC2(CCN(c3ncnnc3Oc3ccc(F)cc3-c3cccnc3C3CC3)C2)C1` (single isomer, unassigned) [Compound 291]: the concentration for half-maximal inhibition (IC50) turned out to be 0.024 µM in test [1], 1.07 µM in test [2] and 0.0002 µM in test [3].

With `CC(C)[C@H]([C@H]1C[C@@H](NC(=O)CC2COC2)C1)N1CC2(CCN(c3ncnnc3Oc3ccc(F)cc3-c3cncnc3C3CC3)C2)C1` (single isomer, unassigned) [Compound 296], the results for the IC50 in test [1], in test [2] and in test [3] were 0.01 µM, greater than 15 µM and 0.0002 µM, respectively.

Regarding `CC(C)[C@H]([C@H]1C[C@@H](NC(=O)CCN(C)C)C1)N1CC2(CCN(c3ncnnc3Oc3ccc(F)cc3-c3cncnc3C3CC3)C2)C1` (single isomer, unassigned) [Compound 297], the 50% inhibitory concentration (IC50) in test [1] was 0.01 µM; in test [2] it was 10.6 µM; in test [3] it was 0.0001 µM.

Take `CC(C)[C@H]([C@H]1C[C@@H](NC(=O)CC#N)C1)N1CC2(CCN(c3ncnnc3Oc3ccc(F)cc3-c3cncnc3C3CC3)C2)C1` (single isomer, unassigned) [Compound 298]: the results for the IC50 in test [1], in test [2] and in test [3] were 0.006 µM, 9.32 µM and 0.0001 µM, respectively.

Take `COCC(=O)N[C@H]1C[C@@H]([C@@H](C(C)C)N2CC3(CCN(c4ncnnc4Oc4ccc(F)cc4-c4cncnc4C4CC4)C3)C2)C1` (single isomer, unassigned) [Compound 299]: the half-inhibitory concentration (IC50) in test [1] was determined as 0.034 µM; in test [2] it was 8.35 µM; in test [3], 0.0002 µM.

On to `CC(C)[C@H]([C@H]1C[C@@H](NC(=O)C(C)(C)C)C1)N1CC2(CCN(c3ncnnc3Oc3ccc(F)cc3-c3cncnc3C3CC3)C2)C1` (single isomer, unassigned) [Compound 300], for which the IC50 in test [1] is 0.17 µM; in test [2], 8.19 µM; in test [3], 0.0003 µM.

(Values after patent publication US20240417405A1, “Substituted Spiro Derivatives” (Janssen Pharmaceutica NV, priority 2021, published 2024).)
